Laboratory results taken from ChEMBL document CHEMBL5046303, “Discovery of TAK-925 as a Potent, Selective, and Brain-Penetrant Orexin 2 Receptor Agonist” (ACS Med Chem Lett, 2022).
The source made the active and inactive calls. The rule behind the calls is not given here.

Experiments:
[1] = system: Mus musculus; assay: Sleep modulation activity in ICR mouse assessed as increase in time spent in wakefulness at 3 mg/kg, sc administered at zeitgeber time 5 measured after 3 hrs post injection; format: functional, organism-based
[2] = target: T1, Orexin receptor type 2 (Homo sapiens, UniProt O43614); assay: Agonist activity at human OX2R expressed in CHO-K1 cells by FLIPR calcium flux assay; format: functional, cell-based
T1 sequence (O43614 whole entry): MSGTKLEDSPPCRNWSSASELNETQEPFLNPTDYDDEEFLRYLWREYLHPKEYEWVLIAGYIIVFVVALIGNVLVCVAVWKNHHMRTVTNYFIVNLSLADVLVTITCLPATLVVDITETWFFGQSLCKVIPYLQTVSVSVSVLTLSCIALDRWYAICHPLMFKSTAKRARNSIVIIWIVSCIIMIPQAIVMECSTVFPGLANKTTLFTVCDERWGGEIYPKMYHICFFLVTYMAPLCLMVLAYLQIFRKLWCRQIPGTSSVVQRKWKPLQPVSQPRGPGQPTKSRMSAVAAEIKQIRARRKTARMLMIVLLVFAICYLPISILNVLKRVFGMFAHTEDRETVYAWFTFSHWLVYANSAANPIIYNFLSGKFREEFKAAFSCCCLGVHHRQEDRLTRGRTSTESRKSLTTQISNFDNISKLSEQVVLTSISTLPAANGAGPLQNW

Row | EC50 [2] | Compound | Activity [1]
1 | – | COC(=O)N1CCC[C@H](NS(C)(=O)=O)[C@@H]1CO[C@H]1CC[C@@H](c2ccccc2)CC1 | Active
2 | 0.18 nM | CC[C@H](C)[C@H](NC(=O)CNC(=O)[C@H](C)NC(=O)[C@H](C)NC(=O)[C@H](Cc1cnc[nH]1)NC(=O)[C@H](CC(N)=O)NC(=O)CNC(=O)[C@H](C)NC(=O)CNC(=O)[C@H](Cc1cnc[nH]1)NC(=O)[C@H](CC(C)C)NC(=O)[C@H](CC(C)C)NC(=O)[C@H](CCC(=O)O)NC(=O)[C@H](Cc1ccc(O)cc1)NC(=O)[C@H](CC(C)C)NC(=O)[C@H](CCCNC(=N)N)NC(=O)[C@H](CS)NC(=O)[C@H](CO)NC(=O)[C@H](CS)NC(=O)[C@@H](NC(=O)[C@H](CCCCN)NC(=O)[C@H](CCC(N)=O)NC(=O)[C@H](CCCNC(=N)N)NC(=O)[C@H](CS)NC(=O)[C@H](CS)NC(=O)[C@H](CC(=O)O)NC(=O)[C@@H]1CCCN1C(=O)[C@H](CC(C)C)NC(=O)[C@@H]1CCCN1C(=O)[C@@H]1CCC(=O)N1)[C@@H](C)O)C(=O)N[C@@H](CC(C)C)C(=O)N[C@H](C(=O)N[C@@H](CC(C)C)C(=O)O)[C@@H](C)O | –
